From ChEMBL document CHEMBL1137558, “Synthesis and biological evaluation of new 2-arylcarbonyl-3-trifluoromethylquinoxaline 1,4-di-N-oxide derivatives and their reduced analogues” (2007)

Tests used:
Assay type in all cases: functional
[1] = Anticancer activity against renal cancer cells; conditions: Homo sapiens, Cancer cell lines
[2] = Anticancer activity against melanoma cells; conditions: Homo sapiens, Melanoma cell
[3] = Anticancer activity against CNS cancer cells; conditions: Homo sapiens, Cancer cell lines
[4] = Anticancer activity against breast cancer cells; conditions: Homo sapiens, Cancer cell lines
[5] = Anticancer activity against prostate cancer cells; conditions: Homo sapiens, Cancer cell lines
[6] = Anticancer activity against nonsmall lung cancer cells; conditions: Homo sapiens, Cancer cell lines
[7] = Anticancer activity against ovarian cancer cells; conditions: Homo sapiens, Cancer cell lines
[8] = Anticancer activity against human NCI60 cells; conditions: for CC50: read-out: LC50 (the source's name)
[9] = Anticancer activity against colon cancer cells; conditions: Homo sapiens, Cancer cell lines
[10] = Anticancer activity against leukemia cells; conditions: Homo sapiens, Leukemia cell

O=C(c1cccs1)c1c(C(F)(F)F)[n+]([O-])c2ccccc2[n+]1[O-]
GI50 [1]: 0.48 µM
GI50 [2]: 1.39 µM
GI50 [3]: 1.45 µM
GI50 [4]: 0.85 µM
GI50 [5]: 0.4 µM
GI50 [6]: 0.35 µM
GI50 [7]: 0.75 µM
GI50 [8]: 0.98 µM
TGI [8]: 3.89 µM
CC50 [8]: 11.2 µM
GI50 [9]: 0.83 µM
GI50 [10]: 13.9 µM

O=C(c1ccco1)c1c(C(F)(F)F)[n+]([O-])c2ccccc2[n+]1[O-]
GI50 [1]: 0.33 µM
GI50 [2]: 0.67 µM
GI50 [3]: 0.4 µM
GI50 [4]: 0.76 µM
GI50 [5]: 0.2 µM
GI50 [6]: 0.35 µM
GI50 [7]: 1.45 µM
GI50 [8]: 0.41 µM
TGI [8]: 5.13 µM
CC50 [8]: 26.9 µM
GI50 [9]: 0.51 µM
GI50 [10]: 0.07 µM

O=C(c1ccc2ccccc2c1)c1c(C(F)(F)F)[n+]([O-])c2cc(Cl)c(Cl)cc2[n+]1[O-]
GI50 [1]: 1.64 µM
GI50 [2]: 1.57 µM
GI50 [3]: 1.63 µM
GI50 [4]: 1.62 µM
GI50 [5]: 1.55 µM
GI50 [6]: 1.7 µM
GI50 [7]: 1.51 µM
GI50 [8]: 1.58 µM
TGI [8]: 3.16 µM
CC50 [8]: 6.17 µM
GI50 [9]: 1.55 µM
GI50 [10]: 1.58 µM

O=C(c1ccco1)c1nc2ccc(C(F)(F)F)cc2[n+]([O-])c1C(F)(F)F
GI50 [1]: 49.7 µM
GI50 [2]: 46.1 µM
GI50 [3]: 35.5 µM
GI50 [4]: 59.1 µM
GI50 [5]: 35.1 µM
GI50 [6]: 41.9 µM
GI50 [7]: 43 µM
GI50 [8]: 47.9 µM
TGI [8]: 95.5 µM
CC50 [8]: > 100 µM
GI50 [9]: 75.1 µM
GI50 [10]: 48.4 µM

COc1ccc2c(c1)[n+]([O-])c(C(=O)c1cccs1)c(C(F)(F)F)[n+]2[O-]
GI50 [1]: 5.11 µM
GI50 [2]: 5.89 µM
GI50 [3]: 6.24 µM
GI50 [4]: 4.92 µM
GI50 [5]: 2.48 µM
GI50 [6]: 3.93 µM
GI50 [7]: 4.99 µM
GI50 [8]: 5.01 µM
TGI [8]: 29.5 µM
CC50 [8]: 49 µM
GI50 [9]: 7.08 µM
GI50 [10]: 4.43 µM

O=C(c1ccc2ccccc2c1)c1c(C(F)(F)F)[n+]([O-])c2cc(F)c(F)cc2[n+]1[O-]
GI50 [1]: 2.18 µM
GI50 [2]: 2.5 µM
GI50 [3]: 2.51 µM
GI50 [4]: 2.36 µM
GI50 [5]: 1.46 µM
GI50 [6]: 3.47 µM
GI50 [7]: 3.8 µM
GI50 [8]: 2.19 µM
TGI [8]: 6.46 µM
CC50 [8]: 23.4 µM
GI50 [9]: 1.71 µM
GI50 [10]: 0.77 µM

O=C(c1ccco1)c1nc2cc(C(F)(F)F)ccc2[n+]([O-])c1C(F)(F)F
GI50 [1]: 60.6 µM
GI50 [2]: 42.9 µM
GI50 [3]: 45.5 µM
GI50 [4]: 32 µM
GI50 [5]: 51.9 µM
GI50 [6]: 48.1 µM
GI50 [7]: 42.5 µM
GI50 [8]: 45.7 µM
TGI [8]: 97.7 µM
CC50 [8]: > 100 µM
GI50 [9]: 41.4 µM
GI50 [10]: 51.1 µM

O=C(c1cccs1)c1c(C(F)(F)F)[n+]([O-])c2cc(F)c(F)cc2[n+]1[O-]
GI50 [1]: 0.5 µM
GI50 [2]: 0.39 µM
GI50 [3]: 0.44 µM
GI50 [4]: 0.41 µM
GI50 [5]: 0.51 µM
GI50 [6]: 0.83 µM
GI50 [7]: 0.53 µM
GI50 [8]: 0.37 µM
TGI [8]: 1.62 µM
CC50 [8]: 9.33 µM
GI50 [9]: 0.27 µM
GI50 [10]: 0.05 µM

O=C(c1ccco1)c1c(C(F)(F)F)[n+]([O-])c2cc(C(F)(F)F)ccc2[n+]1[O-]
GI50 [1]: 0.49 µM
GI50 [2]: 0.86 µM
GI50 [3]: 0.81 µM
GI50 [4]: 0.48 µM
GI50 [5]: 0.19 µM
GI50 [6]: 0.48 µM
GI50 [7]: 0.65 µM
GI50 [8]: 0.47 µM
TGI [8]: 1.2 µM
CC50 [8]: 3.89 µM
GI50 [9]: 0.28 µM
GI50 [10]: 0.13 µM

O=C(c1ccco1)c1c(C(F)(F)F)[n+]([O-])c2cc(F)c(F)cc2[n+]1[O-]
GI50 [1]: 0.36 µM
GI50 [2]: 0.56 µM
GI50 [3]: 0.37 µM
GI50 [4]: 0.2 µM
GI50 [5]: 0.42 µM
GI50 [6]: 0.73 µM
GI50 [7]: 0.39 µM
GI50 [8]: 0.38 µM
TGI [8]: 1.48 µM
CC50 [8]: 7.76 µM
GI50 [9]: 0.19 µM
GI50 [10]: 0.43 µM

O=C(c1ccco1)c1nc2cc(C(F)(F)F)ccc2nc1C(F)(F)F
GI50 [1]: 100 µM
GI50 [2]: 100 µM
GI50 [3]: 75.9 µM
GI50 [4]: 84 µM
GI50 [5]: 100 µM
GI50 [6]: 81.5 µM
GI50 [7]: 90.9 µM
GI50 [8]: 87.1 µM
TGI [8]: 97.7 µM
CC50 [8]: > 100 µM
GI50 [9]: 100 µM
GI50 [10]: 54 µM

COc1ccc2c(c1)[n+]([O-])c(C(=O)c1ccco1)c(C(F)(F)F)[n+]2[O-]
GI50 [1]: 1.74 µM
GI50 [2]: 3.03 µM
GI50 [3]: 3.2 µM
GI50 [4]: 2.88 µM
GI50 [5]: 3.16 µM
GI50 [6]: 3.49 µM
GI50 [7]: 2.51 µM
GI50 [8]: 2.82 µM
TGI [8]: 18.6 µM
CC50 [8]: 74.1 µM
GI50 [9]: 2.51 µM
GI50 [10]: 3.96 µM

O=C(c1cccs1)c1c(C(F)(F)F)[n+]([O-])c2ccc(C(F)(F)F)cc2[n+]1[O-]
GI50 [1]: 0.31 µM
GI50 [2]: 0.9 µM
GI50 [3]: 0.48 µM
GI50 [4]: 0.5 µM
GI50 [5]: 0.2 µM
GI50 [6]: 0.45 µM
GI50 [7]: 0.43 µM
CC50 [8]: 5.5 µM
GI50 [9]: 0.38 µM
GI50 [10]: 0.2 µM
